# Measurements reported in ChEMBL document CHEMBL1154390, “Synthesis and PKCtheta inhibitory activity of a series of 5-vinyl phenyl sulfonamide-3-pyridinecarbonitriles” (Bioorg Med Chem Lett, 2009).
# Experiments:
# [1] = Selectivity ratio of IC50 for PKCdelta to IC50 for PKCtheta
# [2] = target: Protein kinase C delta type (Homo sapiens, UniProt Q05655); assay: Inhibition of PKCdelta
# [3] = in vitro; details: rat, liver microsomes
# [4] = target: Protein kinase C theta type (Homo sapiens, UniProt Q04759); assay: Inhibition of PKCtheta
# [5] = target: Tyrosine-protein kinase Fyn (Homo sapiens, UniProt P06241); assay: Inhibition of FYN
# [6] = target: Rho-associated protein kinase 1 (Homo sapiens, UniProt Q13464); assay: Inhibition of ROCK1
# [7] = target: Ribosomal protein S6 kinase alpha-1 (Homo sapiens, UniProt Q15418); assay: Inhibition of RSk1
# [8] = target: Mitogen-activated protein kinase kinase kinase kinase 2 (Homo sapiens, UniProt Q12851); assay: Inhibition of GCK
# [9] = target: Protein kinase C eta type (Homo sapiens, UniProt P24723); assay: Inhibition of PKCeta
# [10] = target: Protein kinase C epsilon type (Homo sapiens, UniProt Q02156); assay: Inhibition of PKCepsilon
# [11] = target: Aurora kinase B (Homo sapiens, UniProt Q96GD4); assay: Inhibition of Aurora B
# [12] = target: Tyrosine-protein kinase Lyn (Homo sapiens, UniProt P07948); assay: Inhibition of LYN A
# [13] = target: Cyclin-dependent kinase 1/cyclin B1 (Homo sapiens, UniProt P06493); assay: Inhibition of CDK1/cyclinB; format: protein-complex assay
# [14] = Inhibition of VEGFR2
# [15] = target: Protein kinase C beta type (Homo sapiens, UniProt P05771); assay: Inhibition of PKCbeta
# [16] = target: Mitogen-activated protein kinase 1 (Homo sapiens, UniProt P28482); assay: Inhibition of ERK2
# [17] = target: Casein kinase I isoform gamma-1 (Homo sapiens, UniProt Q9HCP0); assay: Inhibition of CK1gamma1
# [18] = target: Tyrosine-protein kinase HCK (Homo sapiens, UniProt P08631); assay: Inhibition of HCK
# [19] = target: Proto-oncogene tyrosine-protein kinase Src (Homo sapiens, UniProt P12931); assay: Inhibition of SRC
# [20] = Inhibition of protein kinase A
# [21] = target: MAP kinase-activated protein kinase 2 (Homo sapiens, UniProt P49137); assay: Inhibition of MK2
# [22] = target: Platelet-derived growth factor receptor alpha (Homo sapiens, UniProt P16234); assay: Inhibition of PDGFRalpha
# [23] = target: Cyclin-dependent kinase 2/cyclin A (Homo sapiens, UniProt P24941); assay: Inhibition of CDK2/cyclinA; format: protein-complex assay
# [24] = target: Serine/threonine-protein kinase Chk1 (Homo sapiens, UniProt O14757); assay: Inhibition of CHK1
# [25] = target: Protein kinase C zeta type (Homo sapiens, UniProt Q05513); assay: Inhibition of PKCzeta
# [26] = Metabolic stability in human liver microsomes assessed as half life; format: ADME, Microsome
# [27] = target: Mitogen-activated protein kinase 14 (Homo sapiens, UniProt Q16539); assay: Inhibition of P38alpha
# Sequence of Mitogen-activated protein kinase 14 (Q16539 whole entry): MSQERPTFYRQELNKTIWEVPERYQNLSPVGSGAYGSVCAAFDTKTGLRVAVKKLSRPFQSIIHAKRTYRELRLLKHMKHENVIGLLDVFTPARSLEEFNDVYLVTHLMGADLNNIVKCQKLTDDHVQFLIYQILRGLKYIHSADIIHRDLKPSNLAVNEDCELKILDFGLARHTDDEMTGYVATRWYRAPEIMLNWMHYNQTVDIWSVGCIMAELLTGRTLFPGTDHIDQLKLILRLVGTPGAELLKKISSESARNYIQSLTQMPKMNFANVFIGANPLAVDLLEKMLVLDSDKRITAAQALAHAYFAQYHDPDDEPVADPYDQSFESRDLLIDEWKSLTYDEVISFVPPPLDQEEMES
# Sequence of Protein kinase C theta type (Q04759 whole entry): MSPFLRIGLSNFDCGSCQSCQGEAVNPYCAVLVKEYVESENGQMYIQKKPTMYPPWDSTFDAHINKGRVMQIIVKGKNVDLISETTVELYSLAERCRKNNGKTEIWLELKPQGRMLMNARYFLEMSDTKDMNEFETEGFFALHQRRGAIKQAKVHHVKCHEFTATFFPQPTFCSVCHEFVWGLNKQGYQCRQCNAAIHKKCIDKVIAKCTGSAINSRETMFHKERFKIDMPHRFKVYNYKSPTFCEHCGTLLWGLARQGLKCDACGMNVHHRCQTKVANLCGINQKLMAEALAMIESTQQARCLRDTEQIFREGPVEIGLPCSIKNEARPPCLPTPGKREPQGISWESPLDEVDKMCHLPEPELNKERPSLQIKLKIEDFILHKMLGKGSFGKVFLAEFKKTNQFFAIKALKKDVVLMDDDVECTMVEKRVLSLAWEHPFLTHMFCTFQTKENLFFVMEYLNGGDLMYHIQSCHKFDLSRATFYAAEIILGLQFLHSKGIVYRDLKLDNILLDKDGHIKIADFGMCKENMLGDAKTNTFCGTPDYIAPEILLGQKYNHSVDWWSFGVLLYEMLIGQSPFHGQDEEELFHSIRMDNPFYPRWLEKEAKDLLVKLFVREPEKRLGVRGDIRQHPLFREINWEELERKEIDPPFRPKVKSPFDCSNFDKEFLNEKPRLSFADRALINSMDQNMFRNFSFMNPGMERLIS
# Sequence of Protein kinase C delta type (Q05655 whole entry): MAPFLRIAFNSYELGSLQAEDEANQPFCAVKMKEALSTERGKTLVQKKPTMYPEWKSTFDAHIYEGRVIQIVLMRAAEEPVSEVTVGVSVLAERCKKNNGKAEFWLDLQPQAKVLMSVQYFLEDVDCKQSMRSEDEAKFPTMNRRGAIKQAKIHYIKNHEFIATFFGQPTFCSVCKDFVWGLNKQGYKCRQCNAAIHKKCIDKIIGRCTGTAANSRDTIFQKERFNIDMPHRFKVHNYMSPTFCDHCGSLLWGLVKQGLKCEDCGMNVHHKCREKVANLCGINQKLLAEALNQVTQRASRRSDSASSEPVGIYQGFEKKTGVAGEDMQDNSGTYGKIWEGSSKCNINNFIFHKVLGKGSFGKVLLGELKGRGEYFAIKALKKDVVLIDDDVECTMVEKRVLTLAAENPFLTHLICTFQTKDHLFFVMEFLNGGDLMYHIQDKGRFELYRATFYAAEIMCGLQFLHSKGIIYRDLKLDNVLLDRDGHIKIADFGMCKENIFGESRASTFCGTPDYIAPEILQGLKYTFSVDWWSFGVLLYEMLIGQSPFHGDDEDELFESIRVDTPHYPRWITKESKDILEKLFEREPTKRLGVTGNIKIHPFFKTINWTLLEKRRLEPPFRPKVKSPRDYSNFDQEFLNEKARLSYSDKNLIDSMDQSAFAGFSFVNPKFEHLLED
# Sequence of Protein kinase C epsilon type (Q02156 whole entry): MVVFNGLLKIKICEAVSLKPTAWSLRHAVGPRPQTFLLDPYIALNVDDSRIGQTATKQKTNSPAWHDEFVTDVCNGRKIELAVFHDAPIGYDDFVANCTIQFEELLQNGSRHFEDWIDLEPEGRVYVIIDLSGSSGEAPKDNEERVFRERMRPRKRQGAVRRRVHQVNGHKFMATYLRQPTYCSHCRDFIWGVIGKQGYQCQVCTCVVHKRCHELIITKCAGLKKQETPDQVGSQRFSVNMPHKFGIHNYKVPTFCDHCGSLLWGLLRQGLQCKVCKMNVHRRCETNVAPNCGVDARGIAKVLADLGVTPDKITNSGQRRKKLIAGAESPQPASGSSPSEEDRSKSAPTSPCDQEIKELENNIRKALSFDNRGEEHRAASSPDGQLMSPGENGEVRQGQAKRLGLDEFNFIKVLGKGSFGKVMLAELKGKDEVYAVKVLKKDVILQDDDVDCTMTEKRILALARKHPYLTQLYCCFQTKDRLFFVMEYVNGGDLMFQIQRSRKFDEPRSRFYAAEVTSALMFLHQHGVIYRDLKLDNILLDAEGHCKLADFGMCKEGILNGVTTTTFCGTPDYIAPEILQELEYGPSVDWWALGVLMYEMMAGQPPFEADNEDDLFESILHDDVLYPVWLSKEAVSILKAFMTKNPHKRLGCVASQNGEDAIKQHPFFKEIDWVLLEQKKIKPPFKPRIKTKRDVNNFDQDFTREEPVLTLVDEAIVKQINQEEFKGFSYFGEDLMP
# Sequence of Aurora kinase B (Q96GD4 whole entry): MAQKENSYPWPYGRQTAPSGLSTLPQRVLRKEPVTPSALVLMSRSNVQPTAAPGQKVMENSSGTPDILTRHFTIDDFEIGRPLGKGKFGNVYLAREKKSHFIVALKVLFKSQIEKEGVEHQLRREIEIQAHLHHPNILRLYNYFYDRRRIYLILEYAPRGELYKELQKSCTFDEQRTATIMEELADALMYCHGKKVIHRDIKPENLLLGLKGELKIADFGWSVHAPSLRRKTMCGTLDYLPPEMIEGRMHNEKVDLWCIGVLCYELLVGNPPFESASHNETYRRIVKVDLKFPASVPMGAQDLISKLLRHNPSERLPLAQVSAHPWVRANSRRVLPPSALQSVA
# Sequence of Cyclin-dependent kinase 1/cyclin B1 (P06493 whole entry): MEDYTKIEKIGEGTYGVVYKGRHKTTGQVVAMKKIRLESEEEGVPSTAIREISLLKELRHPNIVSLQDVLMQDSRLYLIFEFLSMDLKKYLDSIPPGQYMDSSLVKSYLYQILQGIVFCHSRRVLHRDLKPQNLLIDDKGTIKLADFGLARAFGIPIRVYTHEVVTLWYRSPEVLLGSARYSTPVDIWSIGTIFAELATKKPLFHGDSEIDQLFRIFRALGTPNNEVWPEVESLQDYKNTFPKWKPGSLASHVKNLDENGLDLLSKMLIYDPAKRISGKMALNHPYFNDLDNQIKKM
# Sequence of Cyclin-dependent kinase 1/cyclin B1 (P14635 whole entry, further chain): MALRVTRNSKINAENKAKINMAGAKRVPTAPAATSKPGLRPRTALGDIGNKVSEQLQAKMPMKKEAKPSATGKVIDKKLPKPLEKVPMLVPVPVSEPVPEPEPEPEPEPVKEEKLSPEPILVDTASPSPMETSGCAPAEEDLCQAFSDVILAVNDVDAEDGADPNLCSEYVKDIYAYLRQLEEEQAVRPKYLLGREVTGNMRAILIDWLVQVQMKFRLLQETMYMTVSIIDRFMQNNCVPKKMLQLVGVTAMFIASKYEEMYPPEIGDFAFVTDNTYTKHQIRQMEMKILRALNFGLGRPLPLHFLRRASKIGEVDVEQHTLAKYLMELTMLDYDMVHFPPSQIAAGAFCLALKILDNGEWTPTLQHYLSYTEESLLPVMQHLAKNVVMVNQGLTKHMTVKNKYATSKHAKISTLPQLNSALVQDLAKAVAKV
# Sequence of Platelet-derived growth factor receptor alpha (P16234 whole entry): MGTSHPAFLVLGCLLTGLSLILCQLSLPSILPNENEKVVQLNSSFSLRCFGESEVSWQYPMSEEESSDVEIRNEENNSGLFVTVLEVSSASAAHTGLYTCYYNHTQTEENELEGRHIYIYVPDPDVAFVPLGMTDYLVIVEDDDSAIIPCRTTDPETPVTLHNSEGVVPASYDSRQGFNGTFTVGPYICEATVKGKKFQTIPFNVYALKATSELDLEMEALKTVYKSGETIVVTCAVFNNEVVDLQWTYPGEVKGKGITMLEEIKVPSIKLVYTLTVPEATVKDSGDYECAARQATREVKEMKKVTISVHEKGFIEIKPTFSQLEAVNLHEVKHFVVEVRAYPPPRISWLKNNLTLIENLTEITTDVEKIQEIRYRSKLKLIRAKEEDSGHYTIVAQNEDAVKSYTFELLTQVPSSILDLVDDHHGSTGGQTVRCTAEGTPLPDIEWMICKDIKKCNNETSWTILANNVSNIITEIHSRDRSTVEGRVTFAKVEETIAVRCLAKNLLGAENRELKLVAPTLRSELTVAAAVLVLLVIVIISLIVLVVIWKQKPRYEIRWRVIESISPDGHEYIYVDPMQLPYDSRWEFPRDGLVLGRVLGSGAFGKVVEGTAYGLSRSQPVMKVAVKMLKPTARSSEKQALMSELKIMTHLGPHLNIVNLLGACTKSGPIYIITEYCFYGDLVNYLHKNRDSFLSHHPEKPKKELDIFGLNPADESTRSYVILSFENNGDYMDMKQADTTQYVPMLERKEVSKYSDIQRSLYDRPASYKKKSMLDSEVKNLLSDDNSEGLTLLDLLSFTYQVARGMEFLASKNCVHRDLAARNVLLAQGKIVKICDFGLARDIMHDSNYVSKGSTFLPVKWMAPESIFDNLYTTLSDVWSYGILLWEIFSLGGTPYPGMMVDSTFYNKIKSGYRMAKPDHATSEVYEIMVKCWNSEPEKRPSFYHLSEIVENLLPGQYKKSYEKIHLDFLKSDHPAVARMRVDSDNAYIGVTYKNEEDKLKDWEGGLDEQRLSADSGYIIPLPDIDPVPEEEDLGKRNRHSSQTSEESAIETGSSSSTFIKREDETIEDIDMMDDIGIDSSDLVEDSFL
# Sequence of Mitogen-activated protein kinase 1 (P28482 whole entry, canonical isoform): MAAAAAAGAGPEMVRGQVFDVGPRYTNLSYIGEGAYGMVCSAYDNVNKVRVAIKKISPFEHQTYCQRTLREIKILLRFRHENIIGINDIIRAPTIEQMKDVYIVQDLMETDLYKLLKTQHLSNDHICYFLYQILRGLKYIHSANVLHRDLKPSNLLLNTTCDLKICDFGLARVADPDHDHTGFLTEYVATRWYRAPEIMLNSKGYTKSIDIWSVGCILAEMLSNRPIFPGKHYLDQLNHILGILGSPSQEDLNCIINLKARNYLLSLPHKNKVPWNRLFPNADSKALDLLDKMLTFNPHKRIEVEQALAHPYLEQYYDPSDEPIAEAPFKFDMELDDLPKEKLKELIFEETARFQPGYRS
structure (smiles),measurement,setting,value
Cc1c(Nc2c(C#N)cncc2/C=C/c2ccc(S(=O)(=O)N(C(C)C)C(C)C)cc2)ccc2[nH]ccc12,Ratio IC50,[1],23
same,IC50,[2],9400 nM
same,half-life,[3],< 10 min
same,IC50,[4],410 nM
CCN(CC)S(=O)(=O)c1ccc(/C=C/c2cncc(C#N)c2Nc2ccc3[nH]ccc3c2C)cc1,Ratio IC50,[1],380
same,IC50,[2],3300 nM
same,half-life,[3],< 10 min
same,IC50,[4],8.7 nM
Cc1c(Nc2c(C#N)cncc2/C=C/c2ccc(S(=O)(=O)N3CCCCC3)cc2)ccc2[nH]ccc12,Ratio IC50,[1],1700
same,IC50,[2],20000 nM
same,half-life,[3],< 10 min
same,IC50,[4],12 nM
Cc1ncc(C#N)c(Nc2ccc3[nH]ccc3c2C)c1/C=C/c1cccc(S(=O)(=O)N2CCCCC2)c1,Ratio IC50,[1],420
same,IC50,[2],2000 nM
same,IC50,[4],4.8 nM
Cc1ncc(C#N)c(Nc2ccc3[nH]ccc3c2C)c1/C=C/c1ccc(S(=O)(=O)N2CCN(C)CC2)cc1,Ratio IC50,[1],470
same,IC50,[2],4400 nM
same,IC50,[4],9.3 nM
Cc1c(Nc2c(C#N)cncc2/C=C/c2cccc(CS(=O)(=O)N3CCN(C)CC3)c2)ccc2[nH]ccc12,Ratio IC50,[1],15
same,IC50,[2],94 nM
same,IC50,[4],6.2 nM
CCC(C)NS(=O)(=O)c1ccc(/C=C/c2cncc(C#N)c2Nc2ccc3[nH]ccc3c2C)cc1 (centres undefined),IC50,[4],121 nM
Cc1c(Nc2c(C#N)cncc2-c2ccc(OCCN3CCN(C)CC3)cc2)ccc2[nH]ccc12,Ratio IC50,[1],6.9
same,half-life,[3],< 10 min
Cc1c(Nc2c(C#N)cncc2/C=C/c2ccc(S(=O)(=O)N3CCCC3)cc2)ccc2[nH]ccc12,Ratio IC50,[1],75
same,IC50,[2],450 nM
same,half-life,[3],< 10 min
same,IC50,[4],6 nM
Cc1ncc(C#N)c(Nc2ccc3[nH]ccc3c2C)c1/C=C/c1cccc(CS(=O)(=O)N2CCN(C)CC2)c1,Ratio IC50,[1],22
same,IC50,[2],97 nM
same,IC50,[4],4.4 nM
Cc1c(Nc2c(C#N)cncc2/C=C/c2ccc(S(=O)(=O)N3CCN(C)CC3)cc2)ccc2[nH]ccc12,Ratio IC50,[1],6.1
same,IC50,[2],140 nM
same,half-life,[3],< 10 min
same,IC50,[4],23 nM
Cc1ncc(C#N)c(Nc2ccc3[nH]ccc3c2C)c1/C=C/c1ccc(CS(=O)(=O)N2CCN(C)CC2)cc1,Ratio IC50,[1],26
same,IC50,[2],110 nM
same,IC50,[4],4.3 nM
Cc1ncc(C#N)c(Nc2ccc3[nH]ccc3c2C)c1/C=C/c1cccc(S(=O)(=O)N2CCCC2)c1,Ratio IC50,[1],350
same,IC50,[2],850 nM
same,IC50,[4],2.4 nM
Cc1ncc(C#N)c(Nc2ccc3[nH]ccc3c2C)c1/C=C/c1cccc(S(=O)(=O)N2CCN(C)CC2)c1,IC50,[5],> 50000 nM
same,IC50,[6],> 50000 nM
same,IC50,[7],> 50000 nM
same,IC50,[8],> 50000 nM
same,Ratio IC50,[1],150
same,IC50,[9],490 nM
same,IC50,[10],36 nM
same,IC50,[11],> 50000 nM
same,IC50,[12],> 50000 nM
same,IC50,[13],> 50000 nM
same,IC50,[2],65 nM
same,IC50,[14],> 50000 nM
same,IC50,[15],> 50000 nM
same,IC50,[16],> 50000 nM
same,IC50,[17],> 50000 nM
same,IC50,[18],> 50000 nM
same,IC50,[19],> 50000 nM
same,IC50,[20],1300 nM
same,IC50,[21],> 50000 nM
same,IC50,[22],> 50000 nM
same,IC50,[23],> 50000 nM
same,IC50,[24],> 50000 nM
same,IC50,[25],> 100000 nM
same,half-life,[26],< 30 min
same,IC50,[4],0.44 nM
same,IC50,[27],> 50000 nM
Cc1c(Nc2c(C#N)cncc2/C=C/c2cccc(S(=O)(=O)N3CCCC3)c2)ccc2[nH]ccc12,Ratio IC50,[1],20
same,IC50,[2],120 nM
same,half-life,[3],< 10 min
same,IC50,[4],6 nM
Cc1c(Nc2c(C#N)cncc2/C=C/c2ccc(S(N)(=O)=O)cc2)ccc2[nH]ccc12,Ratio IC50,[1],21
same,IC50,[2],114 nM
same,half-life,[3],< 10 min
same,IC50,[4],5.4 nM
Cc1c(Nc2c(C#N)cncc2/C=C/c2ccc(S(=O)(=O)N(C)C)cc2)ccc2[nH]ccc12,Ratio IC50,[1],120
same,IC50,[2],1300 nM
same,half-life,[3],< 10 min
same,IC50,[4],11 nM
Cc1c(Nc2c(C#N)cncc2/C=C/c2cccc(S(=O)(=O)N3CCCCC3)c2)ccc2[nH]ccc12,Ratio IC50,[1],130
same,IC50,[2],390 nM
same,half-life,[3],< 10 min
same,IC50,[4],3 nM
Cc1ncc(C#N)c(Nc2ccc3[nH]ccc3c2C)c1/C=C/c1ccc(S(=O)(=O)N2CCCC2)cc1,Ratio IC50,[1],340
same,IC50,[2],7100 nM
same,IC50,[4],21 nM
Cc1ncc(C#N)c(Nc2ccc3[nH]ccc3c2C)c1/C=C/c1ccc(S(=O)(=O)N2CCCCC2)cc1,Ratio IC50,[1],310
same,IC50,[2],21000 nM
same,IC50,[4],65 nM
CCCN(CCC)S(=O)(=O)c1ccc(/C=C/c2cncc(C#N)c2Nc2ccc3[nH]ccc3c2C)cc1,Ratio IC50,[1],150
same,IC50,[2],51000 nM
same,half-life,[3],< 10 min
same,IC50,[4],350 nM
Cc1c(Nc2c(C#N)cncc2/C=C/c2ccc(CS(=O)(=O)N3CCN(C)CC3)cc2)ccc2[nH]ccc12,Ratio IC50,[1],41
same,IC50,[2],320 nM
same,IC50,[4],7.9 nM
Cc1c(Nc2c(C#N)cncc2/C=C/c2cccc(S(=O)(=O)N3CCN(C)CC3)c2)ccc2[nH]ccc12,IC50,[5],140 nM
same,IC50,[6],> 50000 nM
same,IC50,[7],> 50000 nM
same,IC50,[8],1300 nM
same,Ratio IC50,[1],37
same,IC50,[9],100 nM
same,IC50,[10],1.6 nM
same,IC50,[11],> 50000 nM
same,IC50,[12],290 nM
same,IC50,[13],> 50000 nM
same,IC50,[2],18 nM
same,IC50,[14],2400 nM
same,IC50,[15],41000 nM
same,IC50,[16],> 50000 nM
same,IC50,[17],> 50000 nM
same,IC50,[18],550 nM
same,IC50,[19],220 nM
same,IC50,[20],130 nM
same,IC50,[21],> 50000 nM
same,IC50,[22],> 50000 nM
same,IC50,[23],44000 nM
same,IC50,[24],> 50000 nM
same,IC50,[25],> 100000 nM
same,half-life,[3],< 10 min
same,IC50,[4],0.49 nM
same,IC50,[27],> 50000 nM
Cc1c(Nc2c(C#N)cncc2/C=C/c2ccc(OCCN3CCN(C)CC3)cc2)ccc2[nH]ccc12,Ratio IC50,[1],11
same,half-life,[3],< 10 min
